Measured values from EP1337551B1, “SUBSTANCE P ANALOGS FOR THE TREATMENT OF CANCER” (DABUR PHARMA LTD., priority 2000, dated 2002).
pIC50: −log10 of the molar value. Non-standard residues stand in square brackets, D forms with d. Residues, ends and D or L forms follow the SMILES beside them. pHOPA = not defined here

Tests used:
[1] = test system: H-510 and H-69 SCLC cells; conditions: proliferation of H-510 and H-69 SCLC cells in liquid culture and in semi-solid media; cited from earlier work
SCLC = conditions: inhibition of SCLC proliferation; cited from earlier work
U373 (glioblastoma) = experiment: In vitro cytotoxic activity, MTT assay, 72 hours; format: cell-based, human
Protocol: (§1) The cytotoxic activity of synthesized peptides was tested on six human tumor cell lines namely MCF7 (breast), U373 (glioblastoma), PTC, (colon), L132 (lung), Su.86.86 (pancreas), and KB (oral). The tumor cells were collected at exponential growth phase and resuspended in medium (1.5 x 10^6 cells/ml in RPMI 1640 containing 10% FBS). 150µL of medium was added to the wells of a 96-well tissue culture plate (Nunc, Denmark) followed by 30µl of cell suspension. The plate was left in an incubator (37°C, 5% CO2) overnight. 20µl of the peptide (100 pM to 10 µM concentration) was added to marked wells of the 96-well plate. Each concentration was plated in triplicate. 20µl of medium alone was added to control wells while wells without cells served as blanks. A total volume of 200µL was ensured in each well and plate was left in incubator (37°C, 5% CO2). After 72 hours of incubation an MTT assay was performed and percentage cytotoxicity was calculated with respect to control cells.

MCF7 (breast) = experiment: In vitro cytotoxic activity, MTT assay, 72 hours; format: cell-based, human
Protocol: as §1

L132 (lung) = experiment: In vitro cytotoxic activity, MTT assay, 72 hours; format: cell-based, human
Protocol: as §1

PTC, (colon) = experiment: In vitro cytotoxic activity, MTT assay, 72 hours; format: cell-based, human
Protocol: as §1

KB (oral) = experiment: In vitro cytotoxic activity, MTT assay, 72 hours; format: cell-based, human
Protocol: as §1

Su.86.86 (pancreas) = experiment: In vitro cytotoxic activity, MTT assay, 72 hours; format: cell-based, human
Protocol: as §1

HBL100 (Breast) = experiment: In vitro cytotoxic activity of lipo conjugates, MTT assay, 48 hours; format: cell-based
Protocol: (§2) The cytotoxic effect of lipo-conjugates of substance P analogs SEQ ID NO: 6, SEQ ID NO: 7 and SEQ ID NO: 8, was studied by MTT assay which is based on the principle of uptake of MTT [3-[4,5-dimethylthiazol-2-yl]-2,5-diphenyl tetrazolium bromide], a tetrazolium salt by the metabolically active cells where it is metabolized by active mitochondria in to a blue colored formazan product which can be read spectrophotometrically. Briefly, tumor cells - KB (Oral squamous), U87MG (Blioblastoma), HBL100 (Breast), HeP2 (Larngeal), ECV304 (Endothelial), PA-1 (Ovary) and L132 (Lunng) were incubated with the peptide analogs for 48 hours at 37°C in a 96-well culture plate, followed by the addition of 100 µg MTT and further incubation of 1 hour. The formazan crystals formed inside the cells were dissolved with a detergent comprising of 10% Sodium dodecyl sulfate and 0.01 N HCl and optical density read on a multiscan ELISA reader. The optical density was directly proportional to the number of proliferating and metabolically active cells. SEQ ID NO: 6

HeP2 (Larngeal) = experiment: as above; format: cell-based
Protocol: as §2

PA-1 (Ovary) = experiment: as above; format: cell-based
Protocol: as §2

KB (Oral squamous) = experiment: as above; format: cell-based
Protocol: as §2

ECV304 (Endothelial) = experiment: as above; format: cell-based
Protocol: as §2

U87MG (Blioblastoma) = experiment: as above; format: cell-based
Protocol: as §2

L132 (Lunng) = experiment: as above; format: cell-based
Protocol: as §2

[D-Arg^1, D-Phe^5, D-Trp^7,9, Leu^11] substance P [Antagonist D]
pIC50 [1]: 5.30

D-MePhe-D-Trp-Phe-D-TrpLeu(psi)-(CH2NH)-Leu-NH2 [Analog 6]
pIC50 (SCLC): 5.70

D-MePhe-D-Trp-Phe-DTrp-Leu-MPA [Analog 7]
pIC50 (SCLC): 5.30

pHOPA-D-Trp-Phe-D-Trp-Leu-Leu-NH2 (pHOPA-[dW]F[dW]LL-NH2; reading uncertain) [Analog R]
pIC50 (SCLC): 5.00

CCCC(=O)N[C@H](CCCNC(=N)N)C(=O)N1CCC[C@H]1C(=O)N[C@@H](CCCCN)C(=O)N1CCC[C@H]1C(=O)N[C@H](Cc1ccccc1)C(=O)N[C@@H](CCC(N)=O)C(=O)N[C@H](Cc1c[nH]c2ccccc12)C(=O)N[C@@H](Cc1ccccc1)C(=O)N[C@H](Cc1c[nH]c2ccccc12)C(=O)N[C@@H](CC(C)C)C(=O)NC1(C(N)=O)CCCC1 [SEQ ID NO: 7, Butanoyl-D-Arg-Pro-Lys-Pro-D-Phe-Gln-D-Trp-Phe-D-Trp-Leu-Ac5c-NH2] (HELM PEPTIDE1{[CCCC(=O)[*:2]].[dR].P.K.P.[dF].Q.[dW].F.[dW].L.[O=C(C1(N[*:1])CCCC1)[*:2]].[am]}$$$$V2.0)
Percentage cytotoxicity at different concentrations (U373 (glioblastoma); 100pM): 10.9 ± 1.0% | Percentage cytotoxicity at different concentrations (U373 (glioblastoma); 1nM): 13.4 ± 4.6% | Percentage cytotoxicity at different concentrations (U373 (glioblastoma); 10nM): 6.6 ± 0.7% | Percentage cytotoxicity at different concentrations (U373 (glioblastoma); 100nM): 8.8 ± 0.2% | Percentage cytotoxicity at different concentrations (U373 (glioblastoma); 1µM): 8.3 ± 0.5% | Percentage cytotoxicity at different concentrations (U373 (glioblastoma); 10µM): 21.1 ± 1.7% | Percentage cytotoxicity at different concentrations (MCF7 (breast); MCF-7, 100pM): 19.3 ±1.8% | Percentage cytotoxicity at different concentrations (MCF7 (breast); MCF-7, 1nM): 20.55 ± 3.1% | Percentage cytotoxicity at different concentrations (MCF7 (breast); MCF-7, 10nM): 5.7 ± 1.5% | Percentage cytotoxicity at different concentrations (MCF7 (breast); MCF-7, 100nM): 15.4 ± 0.7% | Percentage cytotoxicity at different concentrations (MCF7 (breast); MCF-7, 1µM): 11.7 ± 5.1% | Percentage cytotoxicity at different concentrations (MCF7 (breast); MCF-7, 10µM): 19.7 ±5% | Percentage cytotoxicity at different concentrations (L132 (lung); 100pM): 14 ± 3.4% | Percentage cytotoxicity at different concentrations (L132 (lung); 1nM): 25 ± 8% | Percentage cytotoxicity at different concentrations (L132 (lung); 10nM): 19 ± 3.3% | Percentage cytotoxicity at different concentrations (L132 (lung); 100nM): 9 ± 2.3% | Percentage cytotoxicity at different concentrations (L132 (lung); 1µM): 9 ± 2.3% | Percentage cytotoxicity at different concentrations (L132 (lung); 10µM): 15 ± 2.3% | Percentage cytotoxicity at different concentrations (PTC, (colon); 100pM): Nil | Percentage cytotoxicity at different concentrations (PTC, (colon); 1nM): Nil | Percentage cytotoxicity at different concentrations (PTC, (colon); 10nM): 5.8 ± 0.2% | Percentage cytotoxicity at different concentrations (PTC, (colon); 100nM): 5.3 ± 0.2% | Percentage cytotoxicity at different concentrations (PTC, (colon); 1µM): 11.7 ± 3.0% | Percentage cytotoxicity at different concentrations (PTC, (colon); 10µM): 27.3 ± 5.4% | Percentage cytotoxicity at different concentrations (KB (oral); 100pM): Nil | Percentage cytotoxicity at different concentrations (KB (oral); 1nM): 6 ± 0.9% | Percentage cytotoxicity at different concentrations (KB (oral); 10nM): 10 ± 3.4% | Percentage cytotoxicity at different concentrations (KB (oral); 100nM): 10 ± 4.9% | Percentage cytotoxicity at different concentrations (KB (oral); 1µM): 4 ± 2.6% | Percentage cytotoxicity at different concentrations (KB (oral); 10µM): 15 ± 2.3% | Percentage cytotoxicity at different concentrations (Su.86.86 (pancreas); Su8686, 100pM): 6 ± 1.8% | Percentage cytotoxicity at different concentrations (Su.86.86 (pancreas); Su8686, 1nM): 25 ± 5.3% | Percentage cytotoxicity at different concentrations (Su.86.86 (pancreas); Su8686, 10nM): 10 ± 2.8% | Percentage cytotoxicity at different concentrations (Su.86.86 (pancreas); Su8686, 100nM): 15 ± 3.8% | Percentage cytotoxicity at different concentrations (Su.86.86 (pancreas); Su8686, 1µM): 36 ± 3.3% | Percentage cytotoxicity at different concentrations (Su.86.86 (pancreas); Su8686, 10µM): 38 ± 4.3% | Percentage cytotoxicity at different concentrations (HBL100 (Breast); 1nM): 13.9 ± 3.5% | Percentage cytotoxicity at different concentrations (HBL100 (Breast); 10nM): 22.9 ± 3.8% | Percentage cytotoxicity at different concentrations (HBL100 (Breast); 100nM): 23.9 ± 1.7% | Percentage cytotoxicity at different concentrations (HBL100 (Breast); 1µM): 22.8 ± 1.4% | Percentage cytotoxicity at different concentrations (HeP2 (Larngeal); 1nM): 16.4 ± 3.2% | Percentage cytotoxicity at different concentrations (HeP2 (Larngeal); 10nM): 19.8 ± 4.8% | Percentage cytotoxicity at different concentrations (HeP2 (Larngeal); 100nM): 24.7 ± 2.5% | Percentage cytotoxicity at different concentrations (HeP2 (Larngeal); 1µM): 12.9 ± 1.4% | Percentage cytotoxicity at different concentrations (PA-1 (Ovary); 1nM): 12.7 ± 3.5% | Percentage cytotoxicity at different concentrations (PA-1 (Ovary); 10nM): 26.7 ± 2.4% | Percentage cytotoxicity at different concentrations (PA-1 (Ovary); 100nM): 32.9 ± 2.6% | Percentage cytotoxicity at different concentrations (PA-1 (Ovary); 1µM): 23.7 ± 3.3% | Percentage cytotoxicity at different concentrations (KB (Oral squamous); 1nM): 20.9 ± 3.6% | Percentage cytotoxicity at different concentrations (KB (Oral squamous); 10nM): 21.9 ± 4.1% | Percentage cytotoxicity at different concentrations (KB (Oral squamous); 100nM): 18.0 ± 5.2% | Percentage cytotoxicity at different concentrations (KB (Oral squamous); 1µM): 9.0 ± 5.3% | Percentage cytotoxicity at different concentrations (ECV304 (Endothelial); 1nM): 13.9 ± 4.5% | Percentage cytotoxicity at different concentrations (ECV304 (Endothelial); 10nM): 16.5 ± 3.3% | Percentage cytotoxicity at different concentrations (ECV304 (Endothelial); 100nM): 20.9 ± 2.3% | Percentage cytotoxicity at different concentrations (ECV304 (Endothelial); 1µM): 6.0 ± 2.4% | Percentage cytotoxicity at different concentrations (U87MG (Blioblastoma); 1nM): 22.9 ± 2.3% | Percentage cytotoxicity at different concentrations (U87MG (Blioblastoma); 10nM): 27.8 ± 2.2% | Percentage cytotoxicity at different concentrations (U87MG (Blioblastoma); 100nM): 21.8 ± 1.2% | Percentage cytotoxicity at different concentrations (U87MG (Blioblastoma); 1µM): 14.8 ± 1.4% | Percentage cytotoxicity at different concentrations (L132 (Lunng); 1nM): 14.9 ± 4.9% | Percentage cytotoxicity at different concentrations (L132 (Lunng); 10nM): 24.7 ± 3.5% | Percentage cytotoxicity at different concentrations (L132 (Lunng); 100nM): 18.5 ± 3.6% | Percentage cytotoxicity at different concentrations (L132 (Lunng); 1µM): 12.9 ± 2.4%
